Consider 39 compounds from US4668689A, “Glutarimide derivatives for treating oestrogen-dependent tumors” (National Research Development Corporation, priority 1984, dated 1987).

Where two headings read alike, the source gives them in different places.

Usually IC50 stands for the concentration that inhibits the measured activity by half.

Data set [1] concerns desmolase. Particulars: literature; cited from earlier work.
Data set [2] in a line: CNS (sedative-hypnotic) activity. Particulars: in vivo.
For data set [3], the target named is T1, desmolase (Bos taurus, UniProt P00189).
T1 construct: The mitochondrial fraction of bovine adrenal cortex provided the source of desmolase; from tissue; host or cells: bovine adrenal cortex, mitochondrial fraction
T1 sequence (P00189 40-520): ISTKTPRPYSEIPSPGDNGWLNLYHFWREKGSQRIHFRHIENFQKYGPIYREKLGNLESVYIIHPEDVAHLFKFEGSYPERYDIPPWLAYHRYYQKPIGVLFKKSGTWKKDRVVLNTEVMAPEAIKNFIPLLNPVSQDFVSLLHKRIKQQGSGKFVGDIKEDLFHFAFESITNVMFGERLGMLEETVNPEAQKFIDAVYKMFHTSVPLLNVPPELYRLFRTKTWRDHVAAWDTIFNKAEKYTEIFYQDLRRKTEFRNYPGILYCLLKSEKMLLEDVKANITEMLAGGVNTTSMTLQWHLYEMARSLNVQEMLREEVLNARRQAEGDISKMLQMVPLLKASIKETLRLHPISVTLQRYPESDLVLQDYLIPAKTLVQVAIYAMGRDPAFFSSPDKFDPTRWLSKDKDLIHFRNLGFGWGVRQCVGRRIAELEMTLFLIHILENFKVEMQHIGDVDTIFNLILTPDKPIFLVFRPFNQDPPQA
As to the kind of experiment: Desmolase inhibition, (26-^14C)-cholesterol as substrate (7 micromolar), mitochondrial fraction of bovine adrenal cortex. In kind it is biochemical.

The target in data set [4] is T2, aromatase (Homo sapiens, UniProt P11511).
T2 construct: Aromatase was obtained from the microsomal fraction of human placental tissue; from tissue; host or cells: human placenta, microsomal fraction
T2 sequence (P11511 1-503): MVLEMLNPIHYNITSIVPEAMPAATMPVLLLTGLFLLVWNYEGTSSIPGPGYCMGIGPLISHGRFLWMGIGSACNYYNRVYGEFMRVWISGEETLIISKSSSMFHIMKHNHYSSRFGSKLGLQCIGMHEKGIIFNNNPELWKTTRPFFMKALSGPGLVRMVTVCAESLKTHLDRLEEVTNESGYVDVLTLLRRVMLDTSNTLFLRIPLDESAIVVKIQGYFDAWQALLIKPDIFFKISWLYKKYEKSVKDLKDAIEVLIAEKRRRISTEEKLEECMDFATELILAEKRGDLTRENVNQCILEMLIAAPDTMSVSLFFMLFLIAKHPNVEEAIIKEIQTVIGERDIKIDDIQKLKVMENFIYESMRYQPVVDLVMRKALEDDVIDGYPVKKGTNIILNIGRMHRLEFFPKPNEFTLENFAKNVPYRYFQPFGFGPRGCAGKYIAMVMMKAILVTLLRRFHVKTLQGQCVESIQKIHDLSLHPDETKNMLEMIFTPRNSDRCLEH
The data set is described as follows: Aromatase inhibition, (1,2-^3H) testosterone as substrate (1.5 micromolar), microsomal fraction of human placental tissue. The data set is classed as biochemical. Particulars: for IC50: 1.5 micromolar (^3H) testosterone; for IC50 / IC50 Aromatase Testosterone: 30° C., "None" = no inhibition; for IC50 Aromatase Testosterone: […] (^3H) testosterone; for aromatase inhibition (in words): substrate not stated.

Data set [5] addresses T2, aromatase. As to the kind of experiment: Aromatase inhibition, (1,2-^3H) androstene-3,17-dione as substrate (0.38 micromolar), microsomal fraction of human placental tissue. In kind it is biochemical. As to conditions: 0.38 micromolar (^3H) androstene-3,17-dione, 30° C., "None" = no inhibition; for IC50: read-out: IC50 Aromatase Androstenedione.
The mark [6] stands for this setting: 7 micromolar (^14C) cholesterol, 30° C., "None" = no inhibition.
Where [7] appears, read: 7 micromolar (^14C) cholesterol, 30° C., "None" = no inhibition, read-out: IC50 Desmolase.

`CCC1(c2ccc(N)cc2)CCC(=O)NC1=O` (centres unmarked) [Aminoglutethimide]: the inhibition of desmolase entry in the data set on desmolase [1] is on record as “also inhibits the enzyme desmolase”.
In the case of `CCC1(c2ccncc2)CCC(=O)NC1=O` (centres unmarked) [Pyridoglutethimide, 3-ethyl-3-(4-pyridyl)piperidine-2,6-dione], in data set [2], the “CNS (sedative-hypnotic) activity” value is “little or no CNS (sedative-hypnotic) activity”. For the same compound, the inhibition of desmolase entry in the data set on desmolase [1] is “not desmolase”. For the same compound, the “IC50 Desmolase” value at desmolase [3] (setting [6]) is recorded as “none”.
As for `O=C1CCC(CCC(F)(F)C(F)(F)C(F)(F)F)(c2ccncc2)C(=O)N1` (centres unmarked) [R1=(CH2)2 (CF2)2 CF3, R2=H], the half-inhibitory concentration (IC50) on aromatase [4] came to 18 µM; at aromatase [5], 22 µM. Besides, the “IC50 Desmolase” value against desmolase [3] (setting [6]) is “none”.
The matching figures for `O=C1CCC(CCC(F)(F)C(F)(F)C(F)(F)C(F)(F)F)(c2ccncc2)C(=O)N1` (centres unmarked) [R1=(CH2)2 (CF2)3 CF3, R2=H, reference compound]: 18 µM, 22 µM and “none”.
With `O=C1CCC(CCC(F)(F)C(F)(F)C(F)(F)C(F)(F)C(F)(F)C(F)(F)F)(c2ccncc2)C(=O)N1` (centres unmarked) [R1=(CH2)2 (CF2)5 CF3, R2=H, reference compound], at aromatase [4], the “IC50 Aromatase Testosterone” value is on record as “none”. The IC50 against desmolase [3] came out at 93 µM. The “IC50 Aromatase Androstenedione” value on aromatase [5] is listed as “none”.
Regarding `O=C1CCC(CCC(F)(F)C(F)(F)C(F)(F)C(F)(F)C(F)(F)C(F)(F)C(F)(F)C(F)(F)F)(c2ccncc2)C(=O)N1` (centres unmarked) [R1=(CH2)2 (CF2)7 CF3, R2=H, reference compound], the half-inhibitory concentration (IC50) against desmolase [3] is 79 µM. At aromatase [5], the “IC50 Aromatase Androstenedione” value is “none”.
Regarding `O=C1CCC(CCC(F)(F)F)(c2ccncc2)C(=O)N1` (centres unmarked) [R1=(CH2)2 CF3, R2=H], the results for the IC50 at aromatase [4] and at aromatase [5] were 2.9 µM and 7 µM, respectively. Besides, the “IC50 Desmolase” value at desmolase [3] (setting [6]) was “none”.
On to `CCC1(c2ccncc2)CCC(=O)N(CCC(F)(F)C(F)(F)C(F)(F)F)C1=O` (centres unmarked) [R1=C2 H5, R2=(CH2)2 (CF2)2 CF3], for which the IC50 came to 3 µM at aromatase [4], 240 µM at desmolase [3] and 15 µM at aromatase [5].
As for `CCC1(c2ccncc2)CCC(=O)N(CCC(F)(F)C(F)(F)C(F)(F)C(F)(F)F)C1=O` (centres unmarked) [R1=C2 H5, R2=(CH2)2 (CF2)3 CF3], the half-inhibitory concentration (IC50) against aromatase [4] is 9 µM; against desmolase [3], 120 µM; on aromatase [5], 9 µM.
Consider `CCC1(c2ccncc2)CCC(=O)N(CCC(F)(F)C(F)(F)C(F)(F)C(F)(F)C(F)(F)C(F)(F)F)C1=O` (centres unmarked) [R1=C2 H5, R2=(CH2)2 (CF2)5 CF3], for which the values for the 50% inhibitory concentration (IC50) against aromatase [4], on desmolase [3] and at aromatase [5] were 34 µM, 145 µM and 23 µM, respectively.
For the compound `CCC1(c2ccncc2)CCC(=O)N(CCC(F)(F)C(F)(F)C(F)(F)C(F)(F)C(F)(F)C(F)(F)C(F)(F)C(F)(F)F)C1=O` (centres unmarked) [R1=C2 H5, R2=(CH2)2 (CF2)7 CF3], the values for the IC50 on aromatase [4] and against desmolase [3] were 15 µM and 150 µM, respectively. Further, the “IC50 Aromatase Androstenedione” value on aromatase [5] was “none”.
In the case of `CCC1(c2ccncc2)CCC(=O)N(CC(F)(F)C(F)(F)C(F)(F)F)C1=O` (centres unmarked) [R1=C2 H5, R2=CH2 (CF2)2 CF3], the IC50 on aromatase [4] was determined as 19 µM; at aromatase [5] it was 106 µM. In addition, the “IC50 Desmolase” value at desmolase [3] (setting [6]) was “none”.
Turning to `CCC1(c2ccncc2)CCC(=O)N(CC(F)(F)F)C1=O` (centres unmarked) [R1=C2 H5, R2=CH2 CF3], the half-maximal inhibitory concentration (IC50) against aromatase [4] is 14 µM; at desmolase [3] (setting [7]) it was over 350 µM; at aromatase [5], 31 µM.
On to `CCC1(c2ccncc2)CCC(=O)N(CCC(F)(F)F)C1=O` (centres unmarked) [R1=C2 H5, R2=CH2 CH2 CF3], for which the concentration for half-maximal inhibition (IC50) turned out to be 11 µM against aromatase [4] and 42 µM on aromatase [5]. Also, the “IC50 Desmolase” value at desmolase [3] (setting [6]) was “none”.
For the compound `CCC1(c2ccncc2)CCC(=O)N(C)C1=O` (centres unmarked) [R1=C2 H5, R2=CH3], the “IC50 Desmolase” value on desmolase [3] (setting [6]) is recorded as “none”.
Compound `CCC1(c2ccncc2)CCC(=O)N(CC2CCCCC2)C1=O` (centres unmarked) [R1=C2 H5, R2=[drawing 7]] came in with an IC50 against aromatase [4] of 9 µM. On desmolase [3] (setting [6]), the “IC50 Desmolase” value is reported as “none”.
For the compound `CCN1C(=O)CCC(CC)(c2ccncc2)C1=O` (centres unmarked) [R1=C2 H5, R2=n-C2 H5, reference compound], the IC50 on desmolase [3] (setting [7]) came out at 92 µM.
With `CCCN1C(=O)CCC(CC)(c2ccncc2)C1=O` (centres unmarked) [R1=C2 H5, R2=n-C3 H7], the “IC50 Desmolase” value against desmolase [3] (setting [6]) is reported as “none”.
As for `CCCCN1C(=O)CCC(CC)(c2ccncc2)C1=O` (centres unmarked) [R1=C2 H5, R2=n-C4 H9], on desmolase [3] (setting [6]), the “IC50 Desmolase” value was “none”.
On to `CCCCCN1C(=O)CCC(CC)(c2ccncc2)C1=O` (centres unmarked) [R1=C2 H5, R2=n-C5 H11], for which the concentration for half-maximal inhibition (IC50) at desmolase [3] (setting [7]) was 209 µM.
In the case of `CCCCCCN1C(=O)CCC(CC)(c2ccncc2)C1=O` (centres unmarked) [R1=C2 H5, R2=n-C6 H13], on desmolase [3] (setting [6]), the “IC50 Desmolase” value is recorded as “none”.
In the case of `CCCCCCCN1C(=O)CCC(CC)(c2ccncc2)C1=O` (centres unmarked) [R1=C2 H5, R2=n-C7 H15], the IC50 on desmolase [3] (setting [7]) is 210 µM.
Still for that read-out and setting: for `CCCCCCCCN1C(=O)CCC(CC)(c2ccncc2)C1=O` (centres unmarked) [R1=C2 H5, R2=n-C8 H17] the value was 110 µM.
On to `CCCCCCCCCN1C(=O)CCC(CC)(c2ccncc2)C1=O` (centres unmarked) [R1=C2 H5, R2=n-C9 H19], for which, on aromatase [4], the “aromatase inhibition (in words)” value was “dramatic increase”. The IC50 at desmolase [3] (setting [7]) came to 175 µM.
For `CCCCCCCCCCN1C(=O)CCC(CC)(c2ccncc2)C1=O` (centres unmarked) [R1=C2 H5, R2=n-C10 H21], the IC50 on desmolase [3] (setting [7]) came to 340 µM.
Take `CN1C(=O)CCC(C)(c2ccncc2)C1=O` (centres unmarked) [R1=CH3, R2=CH3, reference compound]: the IC50 at aromatase [4] is over 90 µM. For the same compound, the “IC50 Desmolase” value at desmolase [3] (setting [6]) is “none”.
With `CC1(c2ccncc2)CCC(=O)NC1=O` (centres unmarked) [R1=CH3, R2=H, reference compound], on desmolase [3] (setting [6]), the “IC50 Desmolase” value is listed as “none”.
The same measure, in the same setting: for `CCCC1(c2ccncc2)CCC(=O)NC1=O` (centres unmarked) [R1=n-C3 H7, R2=H] the value was “none”; for `CCCCC1(c2ccncc2)CCC(=O)NC1=O` (centres unmarked) [R1=n-C4 H9, R2=H], “none”.
Regarding `CCCCN1C(=O)CCC(CCCC)(c2ccncc2)C1=O` (centres unmarked) [R1=n-C4 H9, R2=n-C4 H9], the 50% inhibitory concentration (IC50) against aromatase [4] stood at 2.1 µM. The “IC50 Desmolase” value against desmolase [3] (setting [6]) is listed as “none”.
The matching figures for `CCCCCC1(c2ccncc2)CCC(=O)NC1=O` (centres unmarked) [R1=n-C5 H11, R2=H]: 3.2 µM and “none”.
The matching figures for `CCCCCCC1(c2ccncc2)CCC(=O)NC1=O` (centres unmarked) [R1=n-C6 H13, R2=H]: 3.8 µM and “none”.
In the case of `CCCCCCC1(c2ccncc2)CCC(=O)N(CC)C1=O` (centres unmarked) [R1=n-C6 H13, R2=n-C2 H5], at aromatase [4], the IC50 turned out to be 2.1 µM. Besides, the “IC50 Desmolase” value against desmolase [3] (setting [6]) is “none”.
The matching figures for `CCCCCCCC1(c2ccncc2)CCC(=O)NC1=O` (centres unmarked) [R1=n-C7 H15, R2=H]: 2 µM and “none”.
Consider `CCCCCCCCC1(c2ccncc2)CCC(=O)NC1=O` (centres unmarked) [R1=n-C8 H17, R2=H], for which the “IC50 Desmolase” value against desmolase [3] (setting [6]) was “none”.
In the case of `CCCCCCCCC1(c2ccncc2)CCC(=O)N(CCCC)C1=O` (centres unmarked) [R1=n-C8 H17, R2=n-C4 H9, reference compound], on aromatase [4], the “IC50 Aromatase Testosterone” value is “none” and the “aromatase inhibition (in words)” value is listed as “no aromatase inhibition”. The IC50 at desmolase [3] (setting [7]) stood at 106 µM.
As for `CCCCCCCCC1(c2ccncc2)CCC(=O)N(CCCCCC)C1=O` (centres unmarked) [R1=n-C8 H17, R2=n-C6 H13, reference compound], the results for the IC50 at aromatase [4] and at desmolase [3] (setting [7]) were 10 µM and 73 µM, respectively. The “desmolase inhibition (in words)” value at desmolase [3] is listed as “significant desmolase inhibition”.
For the compound `CCCCCCCCN1C(=O)CCC(CCCCCCCC)(c2ccncc2)C1=O` (centres unmarked) [R1=n-C8 H17, R2=n-C8 H17, reference compound], on aromatase [4], the “IC50 Aromatase Testosterone” value is recorded as “none”. In addition, the IC50 on desmolase [3] (setting [7]) came out at 169 µM.
With `CCCCCCCCCC1(c2ccncc2)CCC(=O)NC1=O` (centres unmarked) [R1=n-C9 H19, R2=H], the “IC50 Desmolase” value against desmolase [3] (setting [6]) was “none”.
